Source: patent US9828413B2, “Vancomycin derivative, and preparation method and application thereof” (ACESYS PHARMA INC., priority 2013, dated 2017)
≈ marks a conversion by molar mass, not a printed value.

What was measured:
[1] = tested on: Staphylococcus aureus Mu50; test: In vitro activity assay, minimum inhibitory concentration (MIC), cup-plate method; type: cell-based; details: MU50, read-out: MIC values, Staphylococcus aureus Mu50
Experimental: (§1) In vitro activity assay was performed according to Microbiological Identification of Antibiotics, Appendix XIA, Volume II, Chinese Pharmacopoeia 2010. Vancomycin-sensitive Staphylococcus aureus strains (Newman and Mu 50) were selected as the test strains, and trypticase soy broth was selected as the culture medium.

[2] = tested on: Staphylococcus aureus Newman; test: as above; type: cell-based; details: NEWMAN, read-out: MIC values, Staphylococcus aureus Newman
Experimental: as §1

[3] = Solubility test of compounds in water; details: 25 °C, thermodynamic from solid
[4] = data from US2010/045201; cited from earlier work

Compound | MIC [1] [µg/mL] | MIC [2] [µg/mL] | solubility at 30 min [3] [mg/mL] | Solubility in water [4] [mg/mL]
CN[C@H](CC(C)C)C(=O)N[C@H]1C(=O)N[C@@H](CC(N)=O)C(=O)N[C@H]2C(=O)N[C@H]3C(=O)N[C@H](C(=O)N[C@H](C(=O)O)c4cc(O)cc(O)c4-c4cc3ccc4O)[C@H](O)c3ccc(c(Cl)c3)Oc3cc2cc(c3O[C@@H]2O[C@H](CO)[C@@H](O)[C@H](O)[C@H]2O[C@H]2C[C@](C)(N)[C@H](O)[C@H](C)O2)Oc2ccc(cc2Cl)[C@H]1O [Vancomycin] | 8 (≈ 5.52 µM) | 2 (≈ 1.38 µM) | ≥ 100 | 
Oritavancin |  |  |  | <0.1
